Laboratory results as given in PMC3632285 (Journal of controlled release : official journal of the …, 2013).

Legend:
[1] = In-vitro drug release in dialysis cassettes, PBS pH 7.4, 37°C; type: physicochemical; conditions: plain drug control in dialysis cassette, data not shown
[2] = tested on: monocrotaline (MCT)-induced PAH rats; assay: Hemodynamic studies in monocrotaline; type: in vivo, Sprague-Dawley rats; conditions: 3 mg/kg
[3] = cited from earlier work
[4] = various storage conditions; cited from earlier work
PAH patients = conditions: dose of 30 or 40 mg; cited from earlier work
in vivo = conditions: male, Sprague-Dawley, rat, 10 mg/kg
[5] = tested on: human airway epithelial cells (Calu-3); assay: MTT cytotoxicity study in Calu-3 cells; type: cell-based; conditions: 0.1% w/v, positive control, cell line not specified in the sentence (Fig. 6A)

SMILES	Drug released in the media [1] [%]	Decrease in MPAP (maximal) ([2]; intratracheal) [%]	Reduction in MSAP ([2]; intratracheal) [%]	Decrease in MPAP (maximal) ([2]; intravenous) [%]	Duration of pulmonary vasodilatory effects (15% reduction in MPAP as baseline) ([2]; intravenous) [min]	Reduction in MSAP ([2]; intravenous) [%]	Duration of pulmonary vasodilatory effects (15% reduction in MPAP as baseline) ([2]; pulmonary (intratracheal)) [min]	pKa [3]	Time over which the drug is stable [4]	Effect on MPAP in PAH patients (PAH patients)	bioavailability (in vivo; Bioavailability (relative)) [%]	AUC(0-t) (in vivo; inhaled or intranasal) [ng·h/mL]	Cmax (in vivo; inhaled or intranasal) [ng/mL]	AUC(0-t) (in vivo; iv) [ng·h/mL]	Cmax (in vivo; iv) [ng/mL]	Cell viability [5] [%]
O=S(=O)(c1cccc2cnccc12)N1CCCNCC1 [fasudil]	100	38.3±7.3	38.1±10.8	45.6±17.0	50.0 ± 10.4	45.6±8.4	60.0 ± 15.3	9.727	~ 24 weeks	effective in reducing MPAP	~40	2.33	66.2 ± 13.6	5.71	298 ± 10	
CCCCCCCCCCCCOS(=O)(=O)[O-].[Na+] [SDS, sodium dodecyl sulfate]																15
